{
  "source": "patent US20260234188A1",
  "about": "“CHEMOKINE-BINDING PEPTIDES” (Oxford University Innovation Limited, priority 2022, published 2026)",
  "key": {"[1]": {"tested_on": "panel of up to 42 human chemokines", "assay": "Phage-display next generation sequencing screen of overlapping hexadecapeptide libraries, chemokines displayed on streptavidin beads", "assay_type": "binding", "details": "log2E greater than 5, chemokines named by first part of UniProt Entry Name, peptides binding complement C5a (control) excluded", "how_it_was_run": "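Phage-display libraries of 55662 overlapping hexadecapeptides from tick and viral chemokine-binding proteins, human chemokines and chemokine receptors screened against up to 42 human chemokines, with hits found by next-generation sequencing. Peptides mapped to parent-protein position with log2 fold enrichment; regions of interest where cumulative residue log2 E exceeds the 95% upper CI of the protein median.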"}, "CXCL9": {"target": "T1, CXCL9 (Homo sapiens, UniProt Q07325)", "T1 construct": "purchased Peprotech", "T1 sequence (Q07325 23-125)": "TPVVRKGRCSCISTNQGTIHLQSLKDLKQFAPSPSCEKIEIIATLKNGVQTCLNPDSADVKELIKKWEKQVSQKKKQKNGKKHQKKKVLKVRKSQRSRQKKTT", "assay": "CXCL9-induced activated T-cell migration, transwell assay", "assay_type": "cell-based", "details": "peptide 10 μM, chemokine at EC80", "protocol": "(§1) FIG. 2. […] BK1.2 is described in (Darlot, 2020). […] Chemokines used are indicated by the name, followed in parenthesis by the supplier code (P in supplier code indicates Peprotech). […] All experiments were performed at EC80 doses of indicated chemokine. Data are shown as box-whisker plots of three technical and three biological replicates. Statistically significant differences (compared to control, indicated by #), using Dunnett's test with correction for multiple comparisons, are indicated by asterisks: ****=P≤0.0001, ***=P≤0.001, **=P≤0.01, *=P≤0.05.\n(§2) Briefly, cell migration assays use THP1 cells (human monocyte) and primary human buffy coat white cells (consisting of neutrophil granulocytes, monocytes, and lymphocytes), and activated T-cells. THP1 cells and primary monocytes respond to CCL2, CCL3, CCL5, CCL8 and CXCL4, granulocytes to CXCL1 and CXCL8, activated T-cells to CXCL9/10/11. Assays are performed in 96-well Boyden chambers, and migrated cells counted and characterized using and ATTUNE Flow Cytometer as described. Triplicate assays are performed at the EC80 dose of each chemokine at 10 μM peptide concentration.\n(§3) The J:CXCR1 cell line was generated by transfecting Jurkat cells by electroporation with PvuI-linearized plasmid D1398 and selecting with blasticidin (Sigma-Aldrich, Cat #203350, […]). […] J:CXCR1 cells were cultured in RPMI-1640 media (Gibco), supplemented with 10% FBS and 5 mM L-Glutamine with blasticidin. For J:CXCR1 migration assays, 300,000 cells/well were added to the top chamber of a 3 μm Transwell insert (Corning) in 50 μL of migration media (RPMI-1640, 0.5% FBS, 4 mM L-Glutamine, 0.05% DMSO). The bottom chamber contained 150 μL of chemokine, with or without peptide. Cells were migrated at 37° C. in 5% CO2 for 4 hours. The plate was incubated on a shaking platform for 10 minutes, 800 rpm, at 37° C., and 150 μL from the bottom of the plate transferred into a U-bottom plate containing 50 μL of migration media. Cell counts were determined by Attune NxT Flow Cytometer Plate Reader (ThermoFisher), based on cell size parameters FSC-H/SSC-H. Experiments were performed in 3 technical and 3 biological replicates. THP-1 migration assays were carried out using methods known in the art. Activated T-cell assays were carried out using methods known in the art, with the following modifications in the isolation process. Peripheral blood cells were obtained from leucocyte cones (NHS Blood Transfusion Services), following which, T-cells were isolated using two rounds of human CD8+ T-cell isolation kit (480011, BioLegend). At day 10 after activation, T-cells were frozen at 20 E6 cells/ml in TexMACS medium supplemented with 10% DMSO (D2650, Sigma) in liquid nitrogen. Prior to use, activated T-cells were recovered for 24 hours in TexMACs medium at 0.3 E6 cells/ml and incubated at 37° C. in 5% CO2. Chemokine sources are described in Supplementary information Table 3. Statistical significances between control experimental groups was evaluated using Dunnett's test. IC50 experiments were performed at the EC80 dose of chemokine. EC80 was calculated by fitting a chemokine dose-response curve with 3 parameters (fixing the top to 100%). IC50 was calculated by fitting an inhibitor response curve with 4 parameters."}, "CXCL10": {"target": "T2, CXCL10 (Homo sapiens, UniProt P02778)", "T2 construct": "purchased Peprotech", "T2 sequence (P02778 22-98)": "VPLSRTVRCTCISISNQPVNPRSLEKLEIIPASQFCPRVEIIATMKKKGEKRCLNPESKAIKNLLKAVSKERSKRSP", "assay": "CXCL10-induced activated T-cell migration, transwell assay", "assay_type": "cell-based", "details": "peptide 10 μM, chemokine at EC80", "protocol": "as §1\nFIG. 11. […] Technical replicates are shown as individual data points. […] The response curve (solid blue line) and its 95% confidence interval (grey ribbon) were calculated using a 4-parameter log-logistic plot.\nas §2, with “Triplicate assays are performed at the EC80 dose of each chemokine at 10 μM peptide concentration.” left out"}, "CXCL11": {"target": "T3, CXCL11 (Homo sapiens, UniProt O14625)", "T3 construct": "purchased Peprotech", "T3 sequence (O14625 22-94)": "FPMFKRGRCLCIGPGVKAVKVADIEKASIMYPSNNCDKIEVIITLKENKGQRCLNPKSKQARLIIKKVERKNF", "assay": "CXCL11-induced activated T-cell migration, transwell assay", "assay_type": "cell-based", "details": "peptide 10 μM, chemokine at EC80", "protocol": "as §1, §2, §3"}, "[2]": {"target": "T4, panel of 25 biotinylated chemokines (Homo sapiens, UniProt P48061)", "T4 construct": "purchased Almac or ProteinFoundry", "T4 sequence (P48061 22-89 limits assumed)": "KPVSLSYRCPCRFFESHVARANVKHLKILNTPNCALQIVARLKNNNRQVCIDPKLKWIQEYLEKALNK", "assay": "Phage-display screen of HD2 combinatorial mutagenesis library", "assay_type": "binding", "details": "CXCL12", "text": "FIG. 20. Phage display-combinatorial mutagenesis. FIG. 20A, Tile-plot (bottom panel) showing impact of selected HD2 mutations on Δlog 2 E for all chemokines studied. Δlog 2 E is the difference in log 2 E between the parental wild-type peptide and the mutant variant following phage-display selection. See methods for a description of the strategy used for selecting individual mutations. FIG. 20B, All possible combinations of 16 selected single mutations (coloured using the Taylor scale) at 11 residue locations were combined to create a phage-display library with 3585 mutation combinations. The library included the parental HD2 sequence and single mutations as well. Library cloning, screening and analysis was performed as described in the examples.\nCombinations of different mutations identified by saturation mutagenesis selection were then studied to see if they could result in additive or cooperative effects, allowing further evolution of peptide function in a desired direction. Traditionally, the selection of two or more mutations in combination is guided by knowledge of the structure of the protein-peptide interface. This approach works well when designing agents against a single target where the interface structure has been experimentally characterised but is challenging when designing agents active against multiple targets, where the interface structures have not been experimentally characterised. To systematically identify mutation combinations that work well against multiple structurally related targets we explored the possibility of using phage-display to select combinations of mutations that bind CC or XC classes of chemokines. […]\nAs CC and XC binding peptides appeared to have a different improving mutation spectrum we selected mutations using an algorithm that optimizes CC and XC improving mutations separately. […] The library quality was assessed by NGS AmpliconEZ (50,000 reads), and 3584 of 3585 inserts were identified. […]"}, "CXCL12": {"target": "CXCL12 (Homo sapiens, UniProt P48061)", "sequence (P48061 22-89 limits assumed)": "as above", "assay_type": "cell-based", "parameters": "activity in inhibiting migration of activated T cells in comparison to HD2_Y5W: dose or concentration left out as unconfirmed", "details": "peptides final concentration as printed, chemokine at EC80", "protocol": "FIG. 22. Effect of selected combinatorial HD2 mutations on chemotaxis. FIG. 22A. Box-whisker plot showing the effect of the exemplar single and combinatorically mutant (CM) HD2 peptides on activated-T cell (ATC) migration induced by CXCL12. All experiments were performed as at least three technical and three biological replicates, and individual data points are indicated. […] HD2SCR is a scrambled version of HD2. […] Statistically significant differences (compared to control, HD2_Y5W, coloured blue), using Dunnett's test with correction for multiple comparisons, are indicated by asterisks: ****=P≤0.0001, ***=P≤0.001, **=P≤0.01, *=P≤0.05. All comparisons were made to HD2_Y5W, as it is present in CM539, CM452, and CM304. […] Technical replicates are shown as individual data points. […] The response curve (solid blue line) and its 95% confidence interval (grey ribbon) were calculated using a 4-parameter log-logistic plot. The agonist and estimated IC50 (dotted green line) are indicated.\nas §3\nMigration assays using THP1, activated T-cell (ATC) and J:CXCR1 (Jurkat cells stably transfected with CXCR1 receptor) were performed as described previously. IC50 experiments were performed at the EC80 dose of chemokine. EC80 was calculated by fitting a chemokine dose-response curve with 3 parameters (fixing the top to 100%). IC50 was calculated by fitting an inhibitor response curve with 4 parameters. R-packages used were ggupset_0.3.0, DescTools_0.99.44, and drc_3.0-1."}},
  "note": "Entries after “also recorded” stand apart in the source; their conditions may differ. Ends that are not written are not given here.",
  "data": [
    {"substance": "CVEITYFGDFGDPSQD [EB429]", "values": [
      {"measurement": "Chemokines Bound", "setting": "[1]", "result": "CXL10, CXL11,; also recorded: SDF1, CXL13"},
      {"measurement": "inhibition of cell migration", "setting": "CXCL9", "result": "inhibit cell migration"},
      {"measurement": "inhibition of cell migration", "setting": "CXCL10", "result": "inhibit cell migration"},
      {"measurement": "inhibition of cell migration", "setting": "CXCL11", "result": "inhibit cell migration"}
    ]},
    {"substance": "DDDDWDAYAPIWCYFT [CM452]", "values": [
      {"measurement": "binding in phage display", "setting": "[2]", "result": "enhanced binding"},
      {"measurement": "activity in inhibiting migration of activated T cells in comparison to HD2_Y5W", "setting": "CXCL12", "result": "significantly enhanced activity"}
    ]},
    {"substance": "DDDDWDDYAPITCYFD [CM539]", "values": [
      {"measurement": "binding in phage display", "setting": "[2]", "result": "enhanced binding"},
      {"measurement": "activity in inhibiting migration of activated T cells in comparison to HD2_Y5W", "setting": "CXCL12", "result": "significantly enhanced activity"}
    ]},
    {"substance": "DEDDWDAYAPIWCYFT-NH2 [CM304, DEDDWDAYAPIWCYFT]", "values": [
      {"measurement": "binding in phage display", "setting": "[2]", "result": "enhanced binding"},
      {"measurement": "activity in inhibiting migration of activated T cells in comparison to HD2_Y5W", "setting": "CXCL12", "result": "significantly enhanced activity"}
    ]}
  ]
}
